Results published in patent US11788086B2, “Antitumor compounds and tumor diagnosis” (CBMED GMBH CENTER FOR BIOMARKER RESEARCH IN MEDICINE, priority 2016, dated 2023).

Assays:
eIF protein expression = eIF protein expression after chemosensitivity testings in murine GBM xenograft models (immunoblot); assay type: in vivo, mice; conditions: murine GBM xenografts; for eIF protein expression (eIF subunits overall): compared to PBS treated controls
Procedure: (§1) Protein expression was analyzed in NP-40 tissue lysates. Therefore normalized protein amounts were loaded onto 8% or 12.5% polyacrylamide gels in consideration of the molecular mass of the protein of interest. Electrophoresis was performed for 1.5 h at 120 V in SDS Running Buffer with the Mini-vertical electrophoresis unit (Amersham Biosciences). Then separated proteins were transferred to PVDF-membranes (Immobilin-P Transfer Membran; Millipore) using a Semi Dry Blotting Unit (JH BioInnovations) at 160 mA for 1.5 hours. Membranes were blocked with 5% non-fat dried milk (AppliChem) in Tris-buffered saline-Tween (TBS-T; 0.2 M Tris, 1.4 M NaCl, pH 7.4, 0.1% Tween) for 1 h, followed by a primary antibody incubation (overnight at 4° C.) and an 1 h secondary antibody incubation (1:3000 dilution, GE Healthcare). All primary antibodies were diluted in 5% bovine serum albumin diluted in TBS-T. Between incubation steps membranes were washed 3 times in TBS-T for 10 min. Membranes were then developed with an enhanced chemiluminescence (ECL) Western blotting system (GE healthcare) using the ChemiImager™ System (Alpha Innotech). Immunoblots were evaluated semi-quantitative using ImageJ (Schneider C A, et al. Nat Meth. 9(2012):671-5) software for densitometric analyses. Relative densities were then calculated by normalizing density values for each protein to the loading control (Actin).
(§2) Samples of patients suffering from colon cancer or GBMs were transplanted into 3 to 6 immunodeficient NOD/SCID mice. The tumor growth was monitored in a daily rhythm. At a size of about 1 cm^3, the tumors were removed and transferred to naive NMRI:nu/nu mice for chemosensitivity testing. Xenotransplanted carcinomas and metastases were treated with different standard and novel chemotherapeutic drugs. During chemosensitivity testing the tumor volume was measured regularly and used to generate growth curves. After a time period of 30-40 days the tumors were excised and analyzed by Immunoblot and Real-Time-PCR. Chemosensitivity data were kindly provided by EPO Berlin-Buch GmbH. Tumor volume of treatment in comparison to control (T/C) was calculated in percent.
Additionally to single treatments with each compound, combination therapies for Temozolomide/Everolimus, Temozolomide/Regorafenib and Temozolomide/Thalidomide were investigated.

rectum cancer PDX models = assay: Protein expression in rectum cancer PDX models under chemotherapeutic treatment; assay type: in vivo, mice; conditions: not statistically significant
Procedure: as §1, §2
To analyze protein expression of different eIF subunits under chemotherapeutic treatment, 4 rectum primary carcinoma (RPC) PDX models and 2 rectum metastasis (RM) PDX model were generated.

hepatoma cell = conditions: in vivo and in vitro; cited from earlier work
tumor cells = conditions: eIF5A2 siRNA combined with GC7, HCC; cited from earlier work
colon cancer PDX models = assay: Protein expression in colon cancer patients derived xenograft (PDX) models under chemotherapeutic treatment; assay type: in vivo, mice; conditions: not statistically significant
Procedure: Protein expression was analyzed in NP-40 tissue lysates. Therefore normalized protein amounts were loaded onto 8% or 12.5% polyacrylamide gels in consideration of the molecular mass of the protein of interest. Electrophoresis was performed for 1.5 h at 120 V in SDS Running Buffer with the Mini-vertical electrophoresis unit (Amersham Biosciences). Then separated proteins were transferred to PVDF-membranes (Immobilin-P Transfer Membran; Millipore) using a Semi Dry Blotting Unit (JH BioInnovations) at 160 mA for 1.5 hours. […] Immunoblots were evaluated semi-quantitative using ImageJ (Schneider C A, et al. Nat Meth. 9(2012):671-5) software for densitometric analyses. Relative densities were then calculated by normalizing density values for each protein to the loading control (Actin).
Samples of patients suffering from colon cancer or GBMs were transplanted into 3 to 6 immunodeficient NOD/SCID mice. The tumor growth was monitored in a daily rhythm. […] During chemosensitivity testing the tumor volume was measured regularly and used to generate growth curves. After a time period of 30-40 days the tumors were excised and analyzed by Immunoblot and Real-Time-PCR. […] Tumor volume of treatment in comparison to control (T/C) was calculated in percent.

[1] = rectum metastasis (RM) PDX models

CCc1c2c(nc3ccc(OC(=O)N4CCC(N5CCCCC5)CC4)cc13)-c1cc3c(c(=O)n1C2)COC(=O)[C@]3(O)CC [Irinotecan]
eIF protein expression (eIF subunits overall) (eIF protein expression): differential effects
eIF3A protein expression (rectum cancer PDX models; [1]): trend in downregulation

CNC(=O)c1cc(Oc2ccc(NC(=O)Nc3ccc(Cl)c(C(F)(F)F)c3)cc2)ccn1 [Sorafenib]
Mcl-1 protein (hepatoma cell): reduce
RAF/MEK/ERK signaling transduction pathway (hepatoma cell): inhibit
eIF4E phosphorylation level (hepatoma cell): reduce
hepatoma cell apoptosis (hepatoma cell): induce
eIF protein expression (eIF subunits overall) (eIF protein expression): almost no difference
eIF3C protein expression (eIF protein expression; vs PBS control): upregulated

CC[C@@H](C(=O)[C@@H](C)[C@@H](O)[C@H](C)[C@@H]1O[C@@H]([C@@H](CC)C(=O)O)CC[C@@H]1C)[C@H]1O[C@]2(C=C[C@@H](O)[C@]3(CC[C@@](C)([C@H]4CC[C@](O)(CC)[C@H](C)O4)O3)O2)[C@H](C)C[C@@H]1C [Salinomycin]
eIF protein expression (eIF subunits overall) (eIF protein expression): almost no difference
eIF3C protein expression (eIF protein expression; vs PBS control): upregulated

NCCCCCCCN=C(N)N [GC7]
migration ability of tumor cells (tumor cells): effectively reduces

O=C1[O][Pt]2([NH][C@@H]3CCCC[C@H]3[NH]2)[O]C1=O [Oxaliplatin]
mTOR protein expression (colon cancer PDX models; colon primary carcinoma (CPC) PDX models, vs untreated control): trend to be upregulated
eIF4G protein expression (rectum cancer PDX models; rectum primary carcinoma (RPC) PDX): increased

O=C1CCC(N2C(=O)c3ccccc3C2=O)C(=O)N1 (stereo not shown) [Thalidomide]
eIF protein expression (eIF subunits overall) (eIF protein expression): almost no difference
eIF3C protein expression (eIF protein expression; vs PBS control): upregulated

CNC(=O)c1cc(Oc2ccc(NC(=O)Nc3ccc(Cl)c(C(F)(F)F)c3)c(F)c2)ccn1 [Regorafenib]
eIF protein expression (eIF subunits overall) (eIF protein expression): totally down-regulated
eIF3A protein expression (rectum cancer PDX models; [1]): trend in downregulation

COC(=O)c1ccc2c(c1)NC(=O)/C2=C(\Nc1ccc(N(C)C(=O)CN2CCN(C)CC2)cc1)c1ccccc1 [Nintedanib]
eIF3A protein expression (rectum cancer PDX models; [1]): trend in downregulation
eIF3J protein expression (rectum cancer PDX models; [1]): tendency to be downregulated

Bevacizumab: Anti-VEGF monoclonal antibody (angiogenesis inhibitor)
PTEN protein expression (colon cancer PDX models; CM PDX model): seemed to be decreased
eIF3K protein expression (eIF protein expression; vs PBS control): down-regulation
eIF3A protein expression (rectum cancer PDX models; [1]): trend in downregulation

CO[C@H]1C[C@@H]2CC[C@@H](C)[C@@](O)(O2)C(=O)C(=O)N2CCCC[C@H]2C(=O)O[C@H]([C@H](C)C[C@@H]2CC[C@@H](OCCO)[C@H](OC)C2)CC(=O)[C@H](C)/C=C(\C)[C@@H](O)[C@@H](OC)C(=O)[C@H](C)C[C@H](C)/C=C/C=C/C=C/1C [Everolimus]
eIF protein expression (eIF subunits overall) (eIF protein expression): almost no difference
eIF3C protein expression (eIF protein expression; vs PBS control): upregulated

O=c1[nH]cc(F)c(=O)[nH]1 [5-FU]
eIF3A protein expression (rectum cancer PDX models; [1]): trend in downregulation
